# Laboratory results published in patent US8952033B2, “4-anilinofuro[2,3-b]quinoline derivatives, their preparation processes, and pharmaceutical compositions comprising the same” (Kaohsiung Medical University, priority 2011, dated 2015).
# Marks after values point to notes of the source that are not given here.
# How the values were obtained:
# [1] = Single-dose pharmacokinetic analysis in CD-1 mice; type: in vivo
# Experimental: CD-1 mice were divided into two groups. The first group of mice (n=9) were used to assess the singe-dose pharmacokinetics of the test compounds after intravenous administration, and the second group of mice (n=9) were utilized to assess the singe-dose pharmacokinetics of the test compounds after oral administration. All of the mice were fasted from 4 hours before the administration of the test compounds until 4 hours after the administration of the test compounds.
# The assessment for singe-dose pharmacokinetics of the test compounds after intravenous administration was performed as follows. The first group of mice were further randomly divided into three subgroups including compound 13a group (n=3), compound 14a group (n=3), and compound 1 group (n=3). Compounds 13a, 14a, 1 (in polyethylene glycol 400/ethanol/water (30/5/65, v/v/v)) were respectively administered to the mice in compound 13a group, compound 14a group, and compound 1 group at a dose of 2 mg/kg via tail vein injection. Blood samples (0.25 mL) were collected from the mice by virtue of cardiac puncture right before the intravenous administration, and at 2 min, 5 min, 15 min, 30 min, 1 hr, 1.5 hr, 2 hr, 4 hr, 6 hr, 9 hr, 24 hr, and 27 hr after the intravenous administration.
# The assessment for singe-dose pharmacokinetics of the test compounds after oral administration was conducted as follows. The second group of mice were further randomly divided into three subgroups including compound 13a group (n=3), compound 14a group (n=3), and compound 1 group (n=3). Compounds 13a, 14a, 1 (in 0.5% methylcellulose) were respectively administered to the mice in compound 13a group, compound 14a group, and compound 1 group at a dose of 20 mg/kg via tube feeding. Blood samples (0.25 mL) were collected from the mice by virtue of cardiac puncture right before the oral administration, and at 15 min, 30 min, 1 hr, 1.5 hr, 2 hr, 4 hr, 6 hr, 9 hr, 24 hr, and 27 hr after the oral administration.
# Each of the blood samples was placed in a 0.5 mL Microtainer® tube containing anticoagulant EDTA-K2, followed by mixing evenly. Centrifugation at 7000 g and 4° C. was conducted for 5 minutes. Plasma was collected and was mixed uniformly with a proper amount of acetonitrile, followed by centrifugation. The resultant supernatant was acquired, and was injected into a reversed-phase Biosil ODS column so as to determine the concentration of the respective test compound in plasma (i.e., the plasma concentration of the respective test compound) using a LC-MS/MS system (Waters 2795 LC and Micromass Quattro Ultima). The singe-dose pharmacokinetic parameters of the respective test compound were calculated from the obtained concentration of the respective test compound in plasma (i.e., the obtained plasma concentration of the respective compound) at different time points using WinNonlin Standard Program (version 3.1, Pharsight Corp.)
# NCI-H460 cells = test: In vivo inhibition of lung cancer cells, NCI-H460 tumor in nude mice; design: species or system Balb/C athymic nude mice; settings: for Survival rate: Day 80 (control all dead)
# Experimental: 10^6 NCI-H460 cells were mixed evenly with a proper amount of Matrigel (BD Biosciences). The resultant mixture was injected subcutaneously into each of the nude mice on a dorsal flank close to an upper portion of a hind leg.
# The nude mice bearing a tumor were randomly divided into two groups. The first group (n=14) of the nude mice was used to evaluate the effect of compound 13a after intraperitoneal injection, and was further divided into three subgroups including 10 mg/kg group (n=4), 20 mg/kg group (n=6), and a control group (n=4). Compound 13a (in DMSO/Tween 80/PBS (1/1/8, v/v/v)) was administered to the nude mice in 10 mg/kg group and 20 mg/kg group respectively at a dose of 10 mg/kg and a dose of 20 mg/kg via intraperitoneal injection, and 5% dextrose was administered to the nude mice in the control group at the same dosing volume as compound 13a via intraperitoneal injection.
# The second group (n=28) of the nude mice was used to evaluate the effect of compound 13a after oral administration, and was further divided into three subgroups including 60 mg/kg group (n=10), 120 mg/kg group (n=10), and a control group (n=8). Compound 13a (in a normal saline solution containing 1% DMSO, 1.4% Tween 80, and 1% sodium carboxymethyl cellulose (Sigma), and serving as a vehicle) was administered to the nude mice in 60 mg/kg group and 120 mg/kg group respectively at a dose of 60 mg/kg and a dose of 120 mg/kg via tube feeding (0.22-0.26 mL of the mixture of compound 13a and the vehicle/nude mouse), and the vehicle was administered to the mice in the control group at a dose of 10 mL/kg via tube feeding.
# Administration was conducted once daily for 6 consecutive days. For the first group of the nude mice, the size of the tumor on the dorsal flank was measured with calipers every 9 days for 100 consecutive days. For the second group of the nude mice, the survival rate was calculated every 10 days starting on Day 1 (i.e., the day of the […] administration) for 80 consecutive days, and the size of the tumor on the dorsal flank was measured with the calipers every 3 days for 32 consecutive days.
# [2] = tested on: SKHep-1 (hepatocellular carcinoma cell); test: Preferential antiproliferative activity, SKHep; type: cell-based
# Experimental: Determination of GI50 of compounds 13a, 13c, 14a, 14c, 15a, 16a was conducted substantially according to the method as described in the preceding section A entitled “Evaluation of antiproliferative activity”, except that the normal cell line MRC-5 was also utilized, and that camptothecin and daunorubicin were tested instead of compounds 1, 2, 3. The concentration of the respective test compound, which can reduce absorbance by 50% (compared with DMSO), is regarded as GI50, and can be determined via dose-response curves. Determination of GI50 was conducted thrice for each test compound. GI50 is expressed as mean±SD.
# SI stands for selectivity index and was calculated by substituting GI50 into the following formula: D=E/F (2) where • D=SI • E=GI50 of the respective test compound for cells of the normal cell line • F=GI50 of the respective test compound for cells of the cancer cell line The experimental results are summarized in Table 4. […]
# [3] = intravenous administration, 2 mg/kg
smiles,measurement,setting,value
"C/C(=N\OCCN)c1ccc(Nc2c3ccccc3nc3occc23)cc1 [Compound 13a, (E)-1-(4-(furo[2,3-b]quinolin-4-ylamino)phenyl)ethanone O-2-aminoethyl oxime]",AUC(0-inf),[1]; [3],362.6 ng·h/mL
same,CL,[1]; [3],91.9 mL/min/kg
same,MRT,[1]; [3],2.5 h
same,Vss,[1]; [3],13.5 L/kg
same,Vz,[1]; [3],38.8 L/kg
same,Cmax,"[1]; intravenous administration, 2 mg/kg, extrapolated plasma concentration at 0 hr",1488.4 ng/mL
same,t1/2,"[1]; intravenous administration, 2 mg/kg, from 0.5-1.5 hr (compd. 1) or 9-27 hr (13a, 14a)",4.9^d hr
same,Bioavailability,[1]; oral 20 mg/kg versus intravenous 2 mg/kg,57.1%
same,AUC(0-inf),"[1]; oral administration, 20 mg/kg",2071.6 ng·h/mL
same,Cmax,"[1]; oral administration, 20 mg/kg",1905.0 ng/mL
same,MRT,"[1]; oral administration, 20 mg/kg",3.0 h
same,Tmax,"[1]; oral administration, 20 mg/kg",0.5 h
same,t1/2,"[1]; oral administration, 20 mg/kg, from 2-6 hr (compd. 1), 2-24 hr (13a), 2-9 hr (14a)",3.4 h
same,Size of the tumor,"NCI-H460 cells; intraperitoneal injection, 10 mg/kg and 20 mg/kg once daily for 6 days, versus control",generally grew more slowly with time
same,Size of the tumor,"NCI-H460 cells; oral administration, 60 mg/kg and 120 mg/kg once daily for 6 days, versus control",generally grew more slowly with time
same,Survival rate,"NCI-H460 cells; oral administration, 60 mg/kg group",50%
same,Survival rate,"NCI-H460 cells; oral administration, 120 mg/kg group",50%
same,Size of the tumor,"NCI-H460 cells; oral administration, 120 mg/kg once daily for 6 days",diminished in size after Day 16
same,GI50,"[2]; Homo sapiens, SK-HEP1, mean±SD",13.1 ± 3.75 µM
same,SI SKHep,[2]; versus MRC-5,3.26
